# Measurements taken from the supplement of paper PMC10307832.
# Assays:
# Assay in all cases: relative viability (nuclei count vs DMSO), 5 days (fraction); higher = more cells survive
# A549 = tested on: A549
# How it was run: (§1)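 Values are medians from duplicate plates. Each reflects relative viability, defined as the nuclei count of treated wells over that of vehicle wells. Lung cancer cell lines in 1536-well plates were pin-tool dosed one day after seeding with one drug alone or with a fixed anchor-drug dose plus five library-drug doses (not always all listed) in √10 steps, then fixed, stained and imaged at 4× after 5 days.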
# COR-L 105 = tested on: COR-L 105
# How it was run: as §1
# Calu-6 = tested on: Calu-6
# How it was run: as §1
# EBC-1 = tested on: EBC-1
# How it was run: as §1
# IA-LM = tested on: IA-LM
# How it was run: as §1
# LCLC-103H = tested on: LCLC-103H
# How it was run: as §1
# LK-2 = tested on: LK-2
# How it was run: as §1
# NCI-H1299 = tested on: NCI-H1299
# How it was run: as §1
# NCI-H1355 = tested on: NCI-H1355
# How it was run: as §1
# NCI-H1623 = tested on: NCI-H1623
# How it was run: as §1
# NCI-H1666 = tested on: NCI-H1666
# How it was run: as §1
# NCI-H1703 = tested on: NCI-H1703
# How it was run: as §1
# NCI-H520 = tested on: NCI-H520
# How it was run: as §1
# NCI-H522 = tested on: NCI-H522
# How it was run: as §1
structure (smiles),measurement,setting,value
Nc1ccn([C@@H]2O[C@H](CO)[C@@H](O)[C@@H]2O)c(=O)n1 [Cytarabine] + COc1cc2c(Oc3ccc(NC(=O)C4(C(=O)Nc5ccc(F)cc5)CC4)cc3F)ccnc2cc1OCCCN1CCOCC1 [Foretinib] (partner 0.25 µM),relative viability,A549; first compound 0.005 µM,0.622
same,relative viability,A549; first compound 0.01581 µM,0.629
same,relative viability,A549; first compound 0.05 µM,0.336
same,relative viability,A549; first compound 0.1581 µM,0.071
same,relative viability,A549; first compound 0.5 µM,0.0358
same,relative viability,COR-L 105; first compound 0.005 µM,0.972
same,relative viability,COR-L 105; first compound 0.01581 µM,1.29
same,relative viability,COR-L 105; first compound 0.05 µM,0.825
same,relative viability,COR-L 105; first compound 0.1581 µM,0.812
same,relative viability,COR-L 105; first compound 0.5 µM,0.438
same,relative viability,Calu-6; first compound 0.005 µM,0.796
same,relative viability,Calu-6; first compound 0.01581 µM,0.702
same,relative viability,Calu-6; first compound 0.05 µM,0.707
same,relative viability,Calu-6; first compound 0.1581 µM,0.405
same,relative viability,Calu-6; first compound 0.5 µM,0.233
same,relative viability,EBC-1; first compound 0.005 µM,0.0948
same,relative viability,EBC-1; first compound 0.01581 µM,0.0902
same,relative viability,EBC-1; first compound 0.05 µM,0.0964
same,relative viability,EBC-1; first compound 0.1581 µM,0.0746
same,relative viability,EBC-1; first compound 0.5 µM,0.076
same,relative viability,IA-LM; first compound 0.005 µM,0.802
same,relative viability,IA-LM; first compound 0.01581 µM,1.05
same,relative viability,IA-LM; first compound 0.05 µM,0.916
same,relative viability,IA-LM; first compound 0.1581 µM,0.592
same,relative viability,IA-LM; first compound 0.5 µM,0.246
same,relative viability,LCLC-103H; first compound 0.005 µM,0.849
same,relative viability,LCLC-103H; first compound 0.01581 µM,0.817
same,relative viability,LCLC-103H; first compound 0.05 µM,0.96
same,relative viability,LCLC-103H; first compound 0.1581 µM,0.604
same,relative viability,LCLC-103H; first compound 0.5 µM,0.57
same,relative viability,LK-2; first compound 0.005 µM,1.33
same,relative viability,LK-2; first compound 0.01581 µM,0.683
same,relative viability,LK-2; first compound 0.05 µM,0.741
same,relative viability,LK-2; first compound 0.1581 µM,0.309
same,relative viability,LK-2; first compound 0.5 µM,0.282
same,relative viability,NCI-H1299; first compound 0.005 µM,1.15
same,relative viability,NCI-H1299; first compound 0.01581 µM,1.13
same,relative viability,NCI-H1299; first compound 0.05 µM,1.05
same,relative viability,NCI-H1299; first compound 0.1581 µM,1.12
same,relative viability,NCI-H1299; first compound 0.5 µM,1.16
same,relative viability,NCI-H1355; first compound 0.005 µM,0.976
same,relative viability,NCI-H1355; first compound 0.01581 µM,0.912
same,relative viability,NCI-H1355; first compound 0.05 µM,0.911
same,relative viability,NCI-H1355; first compound 0.1581 µM,0.501
same,relative viability,NCI-H1355; first compound 0.5 µM,0.444
same,relative viability,NCI-H1623; first compound 0.005 µM,0.695
same,relative viability,NCI-H1623; first compound 0.01581 µM,0.545
same,relative viability,NCI-H1623; first compound 0.05 µM,0.375
same,relative viability,NCI-H1623; first compound 0.1581 µM,0.463
same,relative viability,NCI-H1623; first compound 0.5 µM,0.577
same,relative viability,NCI-H1666; first compound 0.005 µM,0.921
same,relative viability,NCI-H1666; first compound 0.01581 µM,0.869
same,relative viability,NCI-H1666; first compound 0.05 µM,0.799
same,relative viability,NCI-H1666; first compound 0.1581 µM,0.549
same,relative viability,NCI-H1666; first compound 0.5 µM,0.541
same,relative viability,NCI-H1703; first compound 0.005 µM,0.251
same,relative viability,NCI-H1703; first compound 0.01581 µM,0.273
same,relative viability,NCI-H1703; first compound 0.05 µM,0.253
same,relative viability,NCI-H1703; first compound 0.1581 µM,0.195
same,relative viability,NCI-H1703; first compound 0.5 µM,0.158
same,relative viability,NCI-H520; first compound 0.005 µM,0.739
same,relative viability,NCI-H520; first compound 0.01581 µM,0.795
same,relative viability,NCI-H520; first compound 0.05 µM,0.974
same,relative viability,NCI-H520; first compound 0.1581 µM,0.621
same,relative viability,NCI-H520; first compound 0.5 µM,0.589
COc1cc2nccc(Oc3ccc(NC(=O)Nc4cc(C)on4)c(Cl)c3)c2cc1OC [Tivozanib] + CCNC(=O)c1noc(-c2cc(C(C)C)c(O)cc2O)c1-c1ccc(CN2CCOCC2)cc1 [Luminespib] (partner 0.01 µM),relative viability,COR-L 105; first compound 0.005 µM,0.669
same,relative viability,COR-L 105; first compound 0.01581 µM,0.657
same,relative viability,COR-L 105; first compound 0.05 µM,1.07
same,relative viability,COR-L 105; first compound 0.1581 µM,0.734
same,relative viability,COR-L 105; first compound 0.5 µM,0.751
same,relative viability,LCLC-103H; first compound 0.005 µM,0.847
same,relative viability,LCLC-103H; first compound 0.01581 µM,0.85
same,relative viability,LCLC-103H; first compound 0.05 µM,0.91
same,relative viability,LCLC-103H; first compound 0.1581 µM,0.964
same,relative viability,LCLC-103H; first compound 0.5 µM,0.921
same,relative viability,LK-2; first compound 0.005 µM,0.179
same,relative viability,LK-2; first compound 0.01581 µM,0.225
same,relative viability,LK-2; first compound 0.05 µM,0.184
same,relative viability,LK-2; first compound 0.1581 µM,0.233
same,relative viability,LK-2; first compound 0.5 µM,0.206
same,relative viability,NCI-H1355; first compound 0.005 µM,0.612
same,relative viability,NCI-H1355; first compound 0.01581 µM,0.686
same,relative viability,NCI-H1355; first compound 0.05 µM,0.747
same,relative viability,NCI-H1355; first compound 0.1581 µM,0.462
same,relative viability,NCI-H1355; first compound 0.5 µM,0.728
same,relative viability,NCI-H1623; first compound 0.005 µM,0.466
same,relative viability,NCI-H1623; first compound 0.01581 µM,0.55
same,relative viability,NCI-H1623; first compound 0.05 µM,0.602
same,relative viability,NCI-H1623; first compound 0.5 µM,0.504
same,relative viability,NCI-H1666; first compound 0.005 µM,0.89
same,relative viability,NCI-H1666; first compound 0.01581 µM,0.998
same,relative viability,NCI-H1666; first compound 0.05 µM,0.993
same,relative viability,NCI-H1666; first compound 0.1581 µM,1.01
same,relative viability,NCI-H1666; first compound 0.5 µM,1
same,relative viability,NCI-H520; first compound 0.005 µM,0.287
same,relative viability,NCI-H520; first compound 0.01581 µM,0.219
same,relative viability,NCI-H520; first compound 0.05 µM,0.222
same,relative viability,NCI-H520; first compound 0.1581 µM,0.328
same,relative viability,NCI-H520; first compound 0.5 µM,0.245
same,relative viability,NCI-H522; first compound 0.005 µM,0.903
same,relative viability,NCI-H522; first compound 0.01581 µM,1.01
same,relative viability,NCI-H522; first compound 0.05 µM,1.03
same,relative viability,NCI-H522; first compound 0.1581 µM,1.16
same,relative viability,NCI-H522; first compound 0.5 µM,1.22
